Measured values published in US20040198752A1, “Method for inhibiting retinoid skin damage” (priority 2001, published 2004).
Read-outs that look alike come from different tables or passages of the source.

How the values were obtained:
[1] = 0.1, 0.5 and 1 mg/kg/day; cited from earlier work
[2] = system: organ-cultured human skin; assay: RA-induced epidermal hyperplasia in human skin organ culture; type: cell-based
Description: Immediately upon biopsy, the tissue was immersed in culture medium consisting of Keratinocyte Basal Medium (KBM) (Clonetics, Inc., Walkersville, Md.). KBM is a low-Ca^2+, serum-free modification of MCDB-153 medium optimized for high-density keratinocyte growth (Wille J, Jr., Pittelkow M R, Shipley G D, Scott R E. Integrated control of growth and differentiation of normal human prokeratinocytes cultured in serum-free medium: clonal analyses, growth kinetics, and cell cycle studies. J Cell Physiol 1984;121:31-44). It was supplemented with CaCl2 to bring the final Ca^2+ concentration to 1.4 mM. After transport to the laboratory on ice, the biopsies were incubated in a 96-well dish containing 200 μL of Ca^2+-supplemented KBM with or without additional treatments. Cultures were incubated at 37° C. in an atmosphere of 95% air and 5% CO2. Incubation was for 8 days, with change of medium containing the various treatments every 2 days. […] For the experiment shown in FIG. 4, human skin keratome biopsies were subjected to organ culture in the presence or absence of 3 μM RA followed by RNA isolation and Northern blotting as previously described (Stoll SW, Elder J T. Retinoid regulation of heparin-binding EGF-lke growth factor gene expression in human keratinocytes and skin. Exp Dermatol, 1998;7:391-397), except that the concentration of Ca^2+ was adjusted to 0.1 mM or 1.4 mM by the addition of CaCl2. cDNA insert probes for detection of HB-EGF and 36B4 were prepared and labeled by random priming, as previously described (Stoll and Elder, Supra., 1998).

[3] = system: human epidermal keratinocytes; assay: Proliferation assay, keratinocytes in monolayer culture; type: cell-based
Description: (§1) Normal human epidermal keratinocytes were obtained from skin biopsies and maintained in monolayer culture using Keratinocyte Growth Medium (KGM) (Clonetics, Inc., Walkersville, Md.). KGM contains the same basal medium as KBM, but is further supplemented with a mixture of growth factors including 0.1 ng/mL EGF, 0.5 μg/mL insulin, and 2% bovine pituitary extract. In some experiments, the HaCaT line of immortalized human epidermal keratinocytes (Boukamp P, Petrussevska R T, Breitkreutz D, Hornung J, Markham A, Fusenig N E. Normal keratinization in a spontaneously immortalized aneuploid human keratinocyte cell line. J Cell Biol, 1988;106:761-771) was used in place of normal keratinocytes. We (J.V., S.W.S., and J.T.E., unpublished observations) and others (Chaturvedi V, Qin J Z, Denning M F, Choubey D, Diaz M O, Nickoloff B J. Apoptosis in proliferating, senescent, and immortalized keratinocytes. J Biol Chem, 1999;274:23358-23367) have observed that HaCaT cells grow well in KGM. Therefore, HaCaT cells and NHK were propagated in exactly the same manner. Fibroblasts obtained from human skin were grown in monolayer culture using Dulbecco's modified minimal essential medium supplemented with nonessential amino acids and 10% fetal bovine serum (DMEM-FBS). Both keratinocytes and fibroblasts were maintained at 37° C. in an atmosphere of 95% air and 5% CO2. Cells were sub-cultured by exposure to trypsin/EDTA and used at passage 2-3.
For proliferation assays, cells were initially plated at 4×10^4 cells per well of a 24-well dish in growth medium (KGM for keratinocytes or DMEM-FBS for fibroblasts). After allowing cells to attach for 1 to 2 hours, the medium was removed and the cells washed twice in KBM (keratinocytes) or Ca^2+-supplemented KBM (fibroblasts). The cells were then incubated for 48 hours with or without additional reagents as indicated in Results. At the end of the incubation period, the cells were harvested by trypsinization and enumerated using an automated particle counter (Coulter Electronics, Hialeah, Fla.).

[4] = system: tyrosine kinases residing outside the c-erbB family; conditions: 1 μM; cited from earlier work
[5] = system: human epidermal keratinocytes; assay: 51Cr-release cytotoxicity assay; type: cell-based; conditions: for IC50: read-out: Cytotoxicity (ID50)
Description: (§2) A ^51Cr-release assay was used to measure cytotoxic effects of the irreversible c-erbB-RTK antagonist. For this assay, keratinocytes were initially plated at 2×10^4 cells per well of a 24-well dish in growth medium (KGM) and treated with 1 μCi per well of ^51Cr. After allowing cells to incorporate ^51Cr for one day, the non-incorporated isotope was removed and the cells washed twice in KBM. The cells were then incubated for 18 hours with or without treatments as indicated in Results. At the end of the incubation period, the percentage of Incorporated ^51Cr that was released into the culture medium was determined.

[6] = 51Cr-release cytotoxicity assay; type: cell-based, human; conditions: human, human epidermal keratinocytes; KBM + Ca2+; read-out: Cytotoxicity (ID50)
Description: as §2

human dermal fibroblasts = assay: RA-induced survival of dermal fibroblasts in low-Ca2+ monolayer culture; type: cell-based; conditions: 3 μM RA, 48 hours, KBM 0.15 mM CaCl2
Description: as §1, with “Cells were sub-cultured by exposure to trypsin/EDTA and used at passage 2-3.” left out

HB-EGF mRNA = HB-EGF mRNA in human skin organ culture (Northern blotting); type: cell-based; conditions: 3 μM RA, 8 hours
Description: Immediately upon biopsy, the tissue was immersed in culture medium consisting of Keratinocyte Basal Medium (KBM) (Clonetics, Inc., Walkersville, Md.). KBM is a low-Ca^2+, serum-free modification of MCDB-153 medium optimized for high-density keratinocyte growth (Wille J, Jr., Pittelkow M R, Shipley G D, Scott R E. Integrated control of growth and differentiation of normal human prokeratinocytes cultured in serum-free medium: clonal analyses, growth kinetics, and cell cycle studies. J Cell Physiol 1984;121:31-44). It was supplemented with CaCl2 to bring the final Ca^2+ concentration to 1.4 mM. After transport to the laboratory on ice, the biopsies were incubated in a 96-well dish containing 200 μL of Ca^2+-supplemented KBM with or without additional treatments. Cultures were incubated at 37° C. in an atmosphere of 95% air and 5% CO2. Incubation was for 8 days, with change of medium containing the various treatments every 2 days. […]

[7] = examined at 1 μM, 5 μM and 10 μM

CC1=C(/C=C/C(C)=C/C=C/C(C)=C\C(=O)O)C(C)(C)CCC1 [Accutane, 13-cis-retinoic acid]
clearing of disease [1]: all dosages provided initial clearing of disease

CNc1cc2c(Nc3cccc(Br)c3)ncnc2cn1 [PD 158780, N^4-(3-Bromo-phenyl)-N^6-methyl-pyrido[3,4-d]pyrimidine-4,6-diamine]
antiproliferative activity [2, 7]: detected only at 5 and 10 μM
effects on RA-stimulated hyperplasia [2, 7]: reversed the effects of RA

C=CC(=O)Nc1cc2c(Nc3cccc(Br)c3)ncnc2cc1OCCCN1CCOCC1 [PD 169540, N-[4-(3-bromo-phenylamino)-7-(3-morpholin-4-yl-propoxy)-quinazolin-6-yl]-acrylamide]
Inhibition of Growth (ID50) ([3]; +EGF): 6 nM
Inhibition of Growth (ID50) ([3]; +insulin/pituitary extract): 900 nM
Inhibition of Growth (ID50) ([3]; KBM + Ca2+): 8 nM
relative potency, organ culture hyperplasia and monolayer proliferation ([3]; comparison of the two c-erbB-RTK antagonists): clearly the more potent compound in both assays
effect on tyrosine kinases residing outside the c-erbB family [4]: without effect
reversal of RA-induced epidermal hyperplasia ([2]; 0.5 μM and 0.1 μM inhibitor, 3 μM RA): also effective, albeit less so than 1 μM
reversal of RA-induced epidermal hyperplasia ([2]; 1 μM inhibitor, 3 μM RA): reversed the effects of 3 μM RA
RA-stimulated epidermal thickness by keratinocyte counts (keratinocytes/block) ([2]; RA + inhibitor, FIG. 2): reduction in hyperplasia
reversal of RA-induced epidermal hyperplasia ([2]; concentrations lower than 0.1 μM): no effect
IC50 ([5]; +EGF): > 1000 nM
IC50 ([5]; +insulin/pituitary extract): > 1000 nM
cytotoxicity by 51Cr release ([5]; any of the concentrations tested): virtually no cytotoxicity
IC50 at 18 h [6]: > 1000 nM

CC1=C(/C=C/C(C)=C/C=C/C(C)=C/C(=O)O)C(C)(C)CCC1 [RA, all-trans retinoic acid, reference compound]
fibroblast survival (human dermal fibroblasts): markedly and significantly promoted fibroblast survival
number of Ki-67-positive cells ([2]; 3 μM RA, 8 days): much larger number of Ki-67-positive cells than did the controls
epidermal thickness (number of epidermal keratinocytes) ([2]; 3 μM RA, 8 days, 1.4 mM Ca2+): The epidermis was thickened
preservation of epithelial viability ([2]; RA added to low-Ca2+ organ cultures): up to 12 days
HB-EGF mRNA induction (HB-EGF mRNA; 1.4 mM Ca2+): clearly dominant over the inhibitory effect of 1.4 mM Ca^2+
HB-EGF mRNA induction (HB-EGF mRNA; low-Ca2+ (0.1 mM)): strongly potentiated
